Two molecules from patent US20110065674A1, “METHODS AND COMPOSITIONS FOR IMPROVING COGNITIVE FUNCTION” (priority 2008, published 2011) can be followed below.

Data set [1] has as its system Age-Impaired (AI) Long-Evans rats. Nature of the data set: 24 hour-delay Morris Water Maze memory retention trial in aged-impaired rats. The class given is in vivo, rat. The conditions noted are these: for spatial memory retention (time in target quadrant) in 24-hr retention trial: donepezil alone 0.5, 1.0 and 2.0 mg/kg i.p. before training.
Protocol: Age-Impaired (AI) Long-Evans rats (as characterized above) were tested for their memory of new spatial information in the MWM, under different drug/control treatment conditions: vehicle control, donezepil only, VPA only, and combination of VPA and donezepil. Donezepil was administered at a range of doses (0.5, 1.0 or 2.0 mg/kg) 30 minutes to 1 hour prior to training trials. VPA was administered chronically and subcutaneously at a rate of 100 mg/kg/day via implanted osmotic minipump.
AI rats were given six training trials per training day with a 60-sec inter-trial interval between each training trial for two consecutive days. On each training trial, the rat was released in the maze from one of four equally spaced starting positions around the perimeter of the pool. […] 30 minutes to 1 hour prior to all the training trials on each training day, AI rats were pretreated with one of four drug conditions: 1) vehicle control (0.9% saline solution); 2) 0.5 mg/kg donpepzil; and 3) 1.0 mg/kg donpepzil; and 4) 2.0 mg/kg donpepzil through intraperitoneal (i.p.) injection.
The same AI rats were used for the entire set of experiments so that each treatment condition was tested on each of the rats. Therefore, to counterbalance any potential bias, both the location of the escape platform and the spatial cues surrounding the water maze were different in the four treatment conditions. In other words, using one set of locations and spatial cues, two rats were treated with saline control solution, two with 0.5 mg/kg donpepzil, two with 1.0 mg/kg donpepzil and two with 2.0 mg/kg donpepzil. These groups were cycled through 3 more sets of locations and spatial cues, with each group of two receiving a different treatment each time, so that at the end, each treatment condition was tested in eight rats.
After the completion of the twelve training trials (over the two days), the rats were returned to their home cages in the colony room for a 24-hr waiting period, in preparation for the subsequent memory retention test. After the waiting period, the rat was given one testing trial (the “retention trial”), which was the same MWM task as the training trials, but with the escape platform removed.
For the retention trial, the MWM circular pool was divided into 4 quadrants. The particular quadrant where the escape platform was placed in the training trials is referred to as the “target quadrant”. The particular region where the platform was located in the training trials is referred to as the “target annulus”. In the retention trial, the time the AI rats spent swimming in the target quadrant was measured and further plotted as a percentage of total swimming time. The time the AI rats spend in the target annulus was also measured. […]
The next data set concerns muscarinic receptor. Nature of the data set: Muscarinic receptor-stimulated GTP-Eu binding assay on hippocampal membranes of treated rats. The conditions noted are these: chronic low dose valproate, memory impaired aged rats, vs vehicle treated; FIG. 1. The class given is biochemical, rat. On the procedure:
Membrane preparation: Rats were decapitated and the hippocampus was dissected on ice then frozen at −80° C. All the tissue was stored in −80° C. and processed for GTP-Eu binding. For the GTP-Eu binding assay, membranes were prepared from frozen tissue by gentle homogenization with a Dounce homogenizer in five volumes of ice-cold 50 mM Tris buffer, pH 7.4, containing 0.2 mM EGTA and protease inhibitors. After centrifuging at 40,000×g at 4° C. for 10 min, the pellets were resuspended in 30 ml of ice-cold Tris buffer. The steps described above were repeated twice, and then the final pellets were resuspended in assay buffer (50 mM Tris, 0.2 mM EGTA, 5 mM MgCl2, and 100 mM NaCl, pH 7.4) (Zhang et al 2007).
Muscarinic receptor-stimulated GTP-Eu binding assay. GTP-Eu binding was assessed using time-resolved fluorescence (Wallac 1420, Perkin-Elmer). The membranes and all the reagents were diluted with assay buffer. Samples were added into a 96-well filter plate in a counter-balanced manner based upon age and behavioral performance, although the experimenter was blind to the identification of the groups at the time of the assay. […] The integration of GTP-Eu into the membrane was measured by excitation of the samples at 340 nm and reading the emission at 615 nm using time-resolved fluorescence (Zhang et al 2007, Nicolle et al 1999). […]

The nature of data set [2]: Blood total VPA level under chronic subcutaneous administration. The class given is in vivo, rat. As to conditions: chronic subcutaneous administration of 100 mg/kg/day. Here is the method:
(§1) AI Rats were treated with sodium valproate (“VPA”) chronically and subcutaneously at a rate of 100 mg/kg/day via implanted osmotic minipump, and then trained and tested in a new water maze environment. The water maze used here was housed in a different building and was surrounded by black curtains with a novel set of white patterns. The training protocol used was based on a modified water maze task known to be highly hippocampal-dependent (de Hoz et al., 2005; Steele & Morris, 1999). Unlike the traditional water maze protocol (such as that used in the background assessment, described above) wherein the escape platform location remained constant throughout training, the escape platform location in this spatial memory version of the task varied from day to day.
After the 6-hr waiting period, the rats were returned to the water maze for a test of spatial memory with the submerged platform located in the same position as in the training trials. Each rat was given 60 s to locate the platform. Rats were trained and tested in this manner for five consecutive days. Performances on the last three days were averaged for analysis. […] The chronic subcutaneous administration of 100 mg/kg/day VPA results in a blood total VPA level of 10 μg/ml plasma (10 μg/ml total VPA).

Data set [3] deals with memory impaired aged rats. Nature of the data set: 6 hour-delay water maze spatial memory task in aged-impaired rats. The class given is in vivo, rat. The conditions noted are these: AI rats, FIG. 2. Here is the method: as §1
The test was comprised of a training phase followed by a memory retention test. Each day, during the training phase, rats were given six trials to locate the submerged escape platform. On each trial, a rat was released in the maze from one of four equally spaced starting positions around the perimeter of the pool. The starting position varied from trial to trial. […] The rat was then removed from the platform and placed in a holding cage for another 40 s before the next trial. The length of the path the rat took while swimming in the maze was measured in each trial. […]

Molecules are shown by their SMILES. “Also recorded” adds a separate entry of the source.

As for `COc1cc2c(cc1OC)C(=O)C(CC1CCN(Cc3ccccc3)CC1)C2` (stereo not shown) [donezepil, donepezil], the “spatial memory retention (time in target quadrant) in 24-hr retention trial” value is “did not significantly improve” in data set [1] (FIG. 3) and “no effect” in data set [1] (FIG. 3, listed as Donezepil).
On to `CCCC(CCC)C(=O)[O-].[Na+]` [VPA, sodium valproate], for which the “muscarinic receptor-stimulated GTP-Eu binding in the hippocampus (percentage of young rat)” value in the data set on muscarinic receptor was “effectively restore post-synaptic muscarinic coupling; also recorded: increases muscarinic receptor-GTP-Eu binding”. Moreover, the “blood total VPA level” value in data set [2] is recorded as 10 μg/ml plasma. For the same molecule, in data set [3] (VPA 100 mg/kg/day chronic s.c. minipump, vs saline or VPA 50 mg/kg/day), the “memory retention (forgetting, path length) after a 6-hr delay” value is recorded as “showed less forgetting; also recorded: improved the performance”. For the same molecule, in data set [3] (chronic s.c. minipump, Trials 1-6, compared with saline), the “performance (path length) at the end of the training phase” value is listed as “performed at a comparable level”. In data set [1] (VPA only, 100 mg/kg/day chronic s.c. minipump, FIG. 3, 100 mg/kg/day), the “spatial memory retention in 24-hr retention trial” value is reported as “no improvement seen”.
